How the values were obtained:
HCT116 WT cells = experiment: HCT116 WT cell proliferation / viability (CellTiter-Glo, 6 days); format: cell-based; conditions: Homo sapiens, HCT-116, 144 h, HCT116 WT cells, 6 days, CellTiter-Glo; read-out: HCT-116 WT IC50
Procedure, shortened: (§1)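 Viability read by CellTiter-Glo after 6-day compound exposure of MTAP-null and wild-type HCT116 cells grown in RPMI 1640 with 10% FBS. Dosing used 1:3 steps from 1 or 10 μM (8-9 points) or 1:2 steps from 10 or 50 μM (22 points); IC50 taken where fitted curve crosses 50% of control.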

HCT116 MTAP null cells = experiment: HCT116 MTAP null cell proliferation / viability (CellTiter-Glo, 6 days); format: cell-based; conditions: HCT116-MTAP null, 144 h, HCT116 MTAP null cells, 6 days, CellTiter-Glo; read-out: HCT-116 MTAP null IC50
Procedure, shortened: as §1

| Compound | IC50 (HCT116 WT cells) [nM] | IC50 (HCT116 MTAP null cells) [nM] |
| --- | --- | --- |
| CN(Cc1ccc(C(F)(F)F)cn1)C(=O)c1cc2c(cn1)nc(N)c1cnn(C)c12 [Example 568, 4-amino-N,1-dimethyl-N-((5-(trifluoromethyl)-2-pyridinyl)methyl)-1H-pyrazolo[4,3-c][1,7]naphthyridine-8-carboxamide] | 5390 | 91 |
| Cn1ncc2c(N)nc3ccc(C(=O)N(Cc4ccc(C(F)(F)F)cn4)C4CC4)cc3c21 [Example 569, 4-amino-N-cyclopropyl-1-methyl-N-((5-(trifluoromethyl)-2-pyridinyl)methyl)-1H-pyrazolo[4,3-c]quinoline-8-carboxamide] | 3890 | 31 |
| Nc1nc2cc(F)c(C(=O)N(Cc3ccc(C(F)(F)F)cn3)C3CC3)cc2c2c1cnn2CC(F)(F)F [Example 570, 4-amino-N-cyclopropyl-7-fluoro-1-(2,2,2-trifluoroethyl)-N-((5-(trifluoromethyl)-2-pyridinyl)methyl)-1H-pyrazolo[4,3-c]quinoline-8-carboxamide] | 329 | 757 |
| CN(Cc1ccc(C(F)(F)F)nn1)C(=O)c1cc2c(cc1F)nc(N)c1cnn(C)c12 [Example 571, 4-amino-7-fluoro-N,1-dimethyl-N-((6-(trifluoromethyl)-3-pyridazinyl)methyl)-1H-pyrazolo[4,3-c]quinoline-8-carboxamide] | 4930 | 71 |
| CN(Cc1ccc(C(F)(F)F)cn1)C(=O)c1cc2c3c(c(N)nc2cc1C(F)(F)F)COC3 [Example 572, 4-amino-N-methyl-7-(trifluoromethyl)-N-((5-(trifluoromethyl)-2-pyridinyl)methyl)-1,3-dihydrofuro[3,4-c]quinoline-8-carboxamide] | > 50000 | 939 |
| CN(Cc1ccc(S(F)(F)(F)(F)F)cc1)C(=O)c1ccc2nc(N)c3cnn(C)c3c2c1 [Example 573, 4-amino-N,1-dimethyl-N-(4-(pentafluoro-lambda~6~- sulfanyl)benzyl)-1H-pyrazolo[4,3-c]quinoline-8-carboxamide] | 3730 | 85 |
| CN(Cc1ccc(S(F)(F)(F)(F)F)cc1)C(=O)c1cc2c(cn1)nc(N)c1cnn(C)c12 [Example 574, 4-amino-N,1-dimethyl-N-(4-(pentafluoro-lambda~6~- sulfanyl)benzyl)-1H-pyrazolo[4,3-c][1,7]naphthyridine-8-carboxamide] | 878 | 25 |
| CN(Cc1ccc(S(F)(F)(F)(F)F)cc1)C(=O)c1cc2c(cc1F)nc(N)c1cnn(C)c12 [Example 575, 4-amino-7-fluoro-N,1-dimethyl-N-(4-(pentafluoro-lambda~6~- sulfanyl)benzyl)-1H-pyrazolo[4,3-c]quinoline-8-carboxamide] | 354 | 12 |
| CN(Cc1ccc(S(F)(F)(F)(F)F)cc1O)C(=O)c1cc2c3c(c(N)nc2cc1F)COC3 [Example 576, 4-amino-7-fluoro-N-(2-hydroxy-4-(pentafluoro-lambda~6~- sulfanyl)benzyl)-N-methyl-1,3-dihydrofuro[3,4-c]quinoline-8-carboxamide] | 2080 | 107 |
| C[C@H](c1ccc(F)cn1)N(C)C(=O)c1cc2c(cc1Cl)nc(N)c1cnn(C)c12 [Example 593, 4-amino-7-chloro-N-((1R)-1-(5-fluoro-2-pyridinyl)ethyl)-N,1-dimethyl-1H-pyrazolo[4,3-c]quinoline-8-carboxamide] | 908 | 12 |
| C[C@H](c1ncccn1)N(Cc1ccc(C#N)cn1)C(=O)c1cc2c3c(c(N)nc2cn1)COC3 [Example 606, (R)-4-amino-N-((5-cyanopyridin-2-yl)methyl)-N-(1-(pyrimidin-2-yl)ethyl)-1,3-dihydrofuro[3,4-c][1,7]naphthyridine-8-carboxamide] | 3700 | 263 |
| CC(C)CN(Cc1ccc(C(F)(F)F)cn1)C(=O)c1cnc2nc(N)c3c(c2c1)CCC3 [Example 607, 6-amino-N-isobutyl-N-((5-(trifluoromethyl)pyridin-2-yl)methyl)-8,9-dihydro-7H-cyclopenta[c][1,8]naphthyridine-2-carboxamide] | 1370 | 154 |
| C[C@H](c1ncccn1)N(Cc1ccc(C(F)(F)F)cn1)C(=O)c1ccc2nc(N)c3c(c2c1)CCC3 [Example 610, 4-amino-N-((1R)-1-(2-pyrimidinyl)ethyl)-N-((5-(trifluoromethyl)-2-pyridinyl)methyl)-2,3-dihydro-1H-cyclopenta[c]quinoline-8-carboxamide] | 135 | 6 |
| CC(C)CN(Cc1ccc(C(F)(F)F)cn1)C(=O)c1ccc2nc(N)c3c(c2c1)CCC3 [Example 611, 4-amino-N-(2-methylpropyl)-N-((5-(trifluoromethyl)-2-pyridinyl)methyl)-2,3-dihydro-1H-cyclopenta[c]quinoline-8-carboxamide] | 474 | 84 |
| CC(C)CN(Cc1ccc(C(F)(F)F)cn1)C(=O)c1cnc2nc(N)c3c(c2c1)COC3 [Example 612, 4-amino-N-(2-methylpropyl)-N-((5-(trifluoromethyl)-2-pyridinyl)methyl)-1,3-dihydrofuro[3,4-c][1,8]naphthyridine-8-carboxamide] | 3060 | 176 |
| CC(C)CN(Cc1ccc(C(F)(F)F)cn1)C(=O)c1ccc2nc(N)c3c(c2c1)COC3 [Example 613, 4-amino-N-(2-methylpropyl)-N-((5-(trifluoromethyl)-2-pyridinyl)methyl)-1,3-dihydrofuro[3,4-c]quinoline-8-carboxamide] | 761 | 23 |
| C[C@H](c1ncccn1)N(Cc1ccc(C(F)(F)F)cn1)C(=O)c1cnc2nc(N)c3c(c2c1)COC3 [Example 614, 4-amino-N-((1R)-1-(2-pyrimidinyl)ethyl)-N-((5-(trifluoromethyl)-2-pyridinyl)methyl)-1,3-dihydrofuro[3,4-c][1,8]naphthyridine-8-carboxamide] | 255 | 42 |
| C[C@H](c1ncccn1)N(Cc1ccc(C#N)cn1)C(=O)c1ccc2nc(N)c3c(c2c1)CCC3 [Example 615, 4-amino-N-((5-cyano-2-pyridinyl)methyl)-N-((1R)-1-(2-pyrimidinyl)ethyl)-2,3-dihydro-1H-cyclopenta[c]quinoline-8-carboxamide] | 271 | 19 |
| Cc1noc2c1c(N)nc1ccc(C(=O)N(Cc3ccc(C(F)(F)F)cn3)CC(C)C)cc12 [Example 617, 4-amino-3-methyl-N-(2-methylpropyl)-N-((5-(trifluoromethyl)-2-pyridinyl)methyl)[1,2]oxazolo[4,5-c]quinoline-8-carboxamide] | > 10000 | 245 |
| CC(C)CN(Cc1ccc(C(F)(F)F)cn1)C(=O)c1cc2c3c(c(N)nc2cn1)COC3 [Example 620, 4-amino-N-(2-methylpropyl)-N-((5-(trifluoromethyl)-2-pyridinyl)methyl)-1,3-dihydrofuro[3,4-c][1,7]naphthyridine-8-carboxamide] | 3560 | 77 |
| C[C@H](c1ncccn1)N(Cc1ccc(C(F)(F)F)cn1)C(=O)c1cc2c3c(c(N)nc2cn1)COC3 [Example 621, 4-amino-N-((1R)-1-(2-pyrimidinyl)ethyl)-N-((5-(trifluoromethyl)-2-pyridinyl)methyl)-1,3-dihydrofuro[3,4-c][1,7]naphthyridine-8-carboxamide] | 1230 | 108 |
| C[C@H](c1ncccn1)N(Cc1ccc(Cl)cn1)C(=O)c1ccc2nc(N)c3c(c2c1)CCC3 [Example 622, 4-amino-N-((5-chloro-2-pyridinyl)methyl)-N-((1R)-1-(2-pyrimidinyl)ethyl)-2,3-dihydro-1H-cyclopenta[c]quinoline-8-carboxamide] | 156 | 11 |
| C[C@H](c1ncccn1)N(Cc1ccc(C(F)F)cn1)C(=O)c1ccc2nc(N)c3c(c2c1)CCC3 [Example 623, 4-amino-N-((5-(difluoromethyl)-2-pyridinyl)methyl)-N-((1R)-1-(2-pyrimidinyl)ethyl)-2,3-dihydro-1H-cyclopenta[c]quinoline-8-carboxamide] | 148 | 15 |
| C[C@H](c1ncccc1F)N(Cc1ccc(Br)nn1)C(=O)c1ccc2nc(N)c3c(c2c1)CCC3 [Example 624, 4-amino-N-((6-bromo-3-pyridazinyl)methyl)-N-((1R)-1-(3-fluoro-2-pyridinyl)ethyl)-2,3-dihydro-1H-cyclopenta[c]quinoline-8-carboxamide] | 189 | 21 |
| C[C@H](c1ncccn1)N(Cc1ccc(C(F)F)cn1)C(=O)c1cnc2nc(N)c3c(c2c1)CCC3 [Example 625, 6-amino-N-((5-(difluoromethyl)-2-pyridinyl)methyl)-N-((1R)-1-(2-pyrimidinyl)ethyl)-8,9-dihydro-7H-cyclopenta[c][1,8]naphthyridine-2-carboxamide] | 1590 | 130 |
| C[C@H](c1ncccn1)N(Cc1ccc(C(F)(F)F)cn1)C(=O)c1cnc2nc(N)c3c(c2c1)CCC3 [Example 626, 6-amino-N-((1R)-1-(2-pyrimidinyl)ethyl)-N-((5-(trifluoromethyl)-2-pyridinyl)methyl)-8,9-dihydro-7H-cyclopenta[c][1,8]naphthyridine-2-carboxamide] | 444 | 43 |
| C[C@H](c1ncccn1)N(Cc1ccc(Cl)cn1)C(=O)c1cnc2nc(N)c3c(c2c1)CCC3 [Example 627, 6-amino-N-((5-chloro-2-pyridinyl)methyl)-N-((1R)-1-(2-pyrimidinyl)ethyl)-8,9-dihydro-7H-cyclopenta[c][1,8]naphthyridine-2-carboxamide] | 583 | 45 |
